This is an account of results in ChEMBL document CHEMBL3108776, “Discovery of Small Molecule RIP1 Kinase Inhibitors for the Treatment of Pathologies Associated with Necroptosis” (ACS Med Chem Lett, 2013).

Converted amounts (≈) assume the structure as drawn.

Data set [1] addresses T1, Receptor-interacting serine/threonine-protein kinase 1 (Homo sapiens, UniProt Q13546).
T1 sequence (Q13546 whole entry): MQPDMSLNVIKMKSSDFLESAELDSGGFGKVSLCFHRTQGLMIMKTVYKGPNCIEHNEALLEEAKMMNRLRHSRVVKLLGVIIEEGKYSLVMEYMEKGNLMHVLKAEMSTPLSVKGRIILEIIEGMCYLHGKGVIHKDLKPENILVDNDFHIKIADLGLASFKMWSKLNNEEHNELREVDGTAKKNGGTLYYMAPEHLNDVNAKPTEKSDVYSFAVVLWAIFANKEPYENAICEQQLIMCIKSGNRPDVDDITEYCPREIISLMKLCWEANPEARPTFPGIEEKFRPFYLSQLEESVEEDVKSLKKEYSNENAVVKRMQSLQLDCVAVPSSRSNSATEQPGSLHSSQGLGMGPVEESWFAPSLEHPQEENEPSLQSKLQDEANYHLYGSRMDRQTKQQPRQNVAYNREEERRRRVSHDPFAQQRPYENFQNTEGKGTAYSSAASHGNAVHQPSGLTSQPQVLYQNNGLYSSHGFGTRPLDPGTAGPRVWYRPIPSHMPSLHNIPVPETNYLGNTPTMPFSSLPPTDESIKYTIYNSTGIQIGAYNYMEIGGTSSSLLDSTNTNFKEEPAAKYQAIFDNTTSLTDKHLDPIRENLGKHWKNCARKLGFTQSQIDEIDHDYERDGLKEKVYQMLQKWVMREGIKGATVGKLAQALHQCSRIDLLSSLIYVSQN
Description: Inhibition of human N-terminal His-GST-TEV-fused RIP1 kinase domain (1 to 375) autophosphorylation expressed in baculovirus infected insect Sf9 cells after 4 hrs by ADP-Glo luminescence assay. For orientation: In ADP-Glo the light output rises with the ADP produced.

Data set [2] has as its target T1, Receptor-interacting serine/threonine-protein kinase 1. The data set is described as follows: Displacement of (14-(2-{[3-({2-{[4-(cyanomethyl)phenyl]amino}-6-[(5-cyclopropyl-1H-pyrazol-3-yl)amino]-4-pyrimidinyl}amino)propyl]amino}-2-oxoethyl)-16,16,18,18-tetramethyl-6,7,7a,8a,9,10,16,18-octahydrobenzo[2'',3'']indolizino[8'',7'':5',6']pyrano[3',2':3,4]pyrido[1,2-a]indol-5-ium-2-sulfonate from human N-terminal His-GST-TEV-fused RIP1 kinase domain (1 to 375) expressed in baculovirus infected insect Sf9 cells preincubated for 10 mins followed by fluorescent ligand addition measured after 15 mins by fluorescence polarization assay.

Data set [3] can be described thus: AUC in C57BL/6 mouse at 2 mg/kg, po measured at 4 hrs. The settings on record: plasma. It counts as ADME, organism-based. Details: dose 2 mg/kg, route oral.
The test system of data set [4] is Mus musculus. Description: Antiinflammatory activity in mouse TNFalpha-induced lethal shock model assessed as protection from body temperature loss at 2 mg/kg, po administered 15 mins prior to TNFalpha challenge measured over 7 hrs relative to TNFalpha-treated control. The data set is classed as functional.
Data set [5] can be described thus: Solubility of the compound. It counts as physicochemical.
Data set [6] concerns Mus musculus. Description: Antiinflammatory activity in mouse TNFalpha-induced lethal shock model assessed as protection from body temperature loss at 0.2 mg/kg, po administered 15 mins prior to TNFalpha challenge measured over 7 hrs relative to TNFalpha-treated control. It counts as functional.
Data set [7] is described as follows: Permeability of the compound. The data set is classed as ADME. The settings on record: not told; read-out: permeability.
For data set [8], the system named is Mus musculus. The data set is described as follows: Antiinflammatory activity in mouse TNFalpha-induced lethal shock model assessed as protection from body temperature loss at 20 mg/kg, po administered 15 mins prior to TNFalpha challenge measured over 7 hrs relative to TNFalpha-treated control. It counts as functional.
Data set [9] can be described thus: Cmax in C57BL/6 mouse at 2 mg/kg, po measured at 4 hrs. Also noted: dose 2 mg/kg, route oral. It counts as ADME, organism-based. Particulars: in vivo.
Data set [10] deals with Mus musculus. Description: Antiinflammatory activity in po dosed mouse TNFalpha-induced lethal shock model assessed as protection from body temperature loss administered 15 mins prior to TNFalpha challenge measured over 7 hrs. The data set is classed as functional, organism-based.
Data set [11] can be described thus: Fraction unbound in mouse. It counts as ADME, organism-based. The settings on record: in vivo.

Usually IC50 stands for the concentration that gives 50% inhibition. With `Nc1nccc2c(-c3ccc(NC(=O)Nc4cc(F)cc(C(F)(F)F)c4)cc3)cccc12`, the figures for the half-inhibitory concentration (IC50) in [1] and in data set [2] were 25 nM and 160 nM, respectively.

Consider `Nc1ncnc2occ(-c3ccc(NC(=O)Nc4cccc(C(F)(F)F)c4)cc3)c12` [GW795493X], for which the half-maximal inhibitory concentration (IC50) was 10 nM in data set [1] and 20 nM in data set [2].

With `Nc1nccc2c(-c3ccc(NC(=O)Nc4ccc(Cl)c(C(F)(F)F)c4)cc3)cccc12`, the 50% inhibitory concentration (IC50) is 160 nM in data set [1] and 40 nM in [2].

Take `O=C(Nc1cccc(-c2c[nH]c3ncc(-c4ccccc4)cc23)c1)Nc1cc(C(F)(F)F)ccc1F`: the IC50 in data set [1] was found to be 80 nM; in data set [2], 200 nM.

On to `CCc1cccc(NC(=O)Nc2ccc(-c3coc4ncnc(N)c34)cc2)c1`, for which the values for the IC50 in [1] and in [2] were 10 nM and 25 nM, respectively.

Take `CS(=O)(=O)c1cccc(-c2cnc3[nH]cc(-c4cccc(NC(=O)Nc5cc(C(F)(F)F)ccc5F)c4)c3c2)c1`: the half-inhibitory concentration (IC50) in data set [1] was 10 nM; in data set [2] it was 63 nM.

In the case of `COc1cccc(NC(=O)Nc2cccc(-c3c[nH]c4ncc(-c5ccccc5)cc34)c2)c1`, the figures for the IC50 in data set [1] and in data set [2] were 6.3 nM and 32 nM, respectively.

As for `Nc1ncnc2occ(-c3ccc(NC(=O)Nc4ccc5ccccc5c4)cc3)c12`, the IC50 in data set [2] is 100 nM.

As to `O=C(Nc1cccc(-c2c[nH]c3ncc(-c4ccccc4)cc23)c1)Nc1cccc([N+](=O)[O-])c1`, the IC50 in data set [1] and in [2] was 16 nM throughout.

As for `Nc1ncnc2occ(-c3ccc(NC(=O)Nc4cc(C(F)(F)F)ccc4Cl)cc3)c12`, the values for the 50% inhibitory concentration (IC50) in data set [1] and in data set [2] were 2500 nM and more than 10000 nM, respectively.

Consider `Nc1ncnc2occ(-c3ccc(NC(=O)Nc4cccc(Cl)c4)cc3)c12`, for which the concentration for half-maximal inhibition (IC50) in data set [1] was 200 nM; in [2], 160 nM.

Turning to `O=C(Nc1cccc(-c2c[nH]c3ncc(-c4cn[nH]c4)cc23)c1)Nc1cc(C(F)(F)F)ccc1F`, the IC50 amounted to 6 nM in [1] and 16 nM in data set [2].

One may read the AUC as the area under the concentration-time curve, a measure of exposure. High values mean high exposure, low ones low exposure. What is called solubility is how much of the substance goes into solution per volume. As a reminder, the Cmax is the peak of the concentration-time curve. Turning to `Nc1ncnc2occ(-c3ccc(NC(=O)Nc4cc(C(F)(F)F)ccc4F)cc3)c12` [GW770249X], in [3], the area under the curve (AUC) at 4 h came to 14000 ng·h/mL. Besides, the Activity in the data set on Mus musculus [4] is 22%; with Mus musculus [6], 15%; in the data set with Mus musculus [8], 77%; in the data set with Mus musculus [10], “Dose-dependent effect”. The solubility in data set [5] amounted to 13 µM (≈ 5.61 µg/mL). The Papp in [7] came to 21 ×10⁻⁶ cm/s. The same compound came in with a Cmax in [9] of 1100 ng/mL. In data set [11], the Fu is on record as 0.04%.

For `Nc1nccc2c(-c3ccc(NC(=O)Nc4cc(C(F)(F)F)ccc4Cl)cc3)cccc12`, the IC50 in data set [1] was found to be 630 nM; in [2], 3200 nM.

As to `Nc1ncnc2occ(-c3ccc(NC(=O)Nc4cccc(C(F)(F)F)c4F)cc3)c12`, the values for the IC50 in [1] and in data set [2] were 200 nM and 250 nM, respectively.

`O=C(Nc1cccc(-c2c[nH]c3ncc(-c4cccnc4)cc23)c1)Nc1cc(C(F)(F)F)ccc1F`: the half-inhibitory concentration (IC50) is 4 nM in data set [1] and 7.9 nM in [2].

In the case of `Nc1ncnc2occ(-c3ccc(NC(=O)Nc4ccc(Cl)c(C(F)(F)F)c4)cc3)c12`, the IC50 in data set [1] was determined as 32 nM; in data set [2], 160 nM.

Consider `NC(=O)c1cccc(-c2cnc3[nH]cc(-c4cccc(NC(=O)Nc5cc(C(F)(F)F)ccc5F)c4)c3c2)c1`, for which the IC50 is 10 nM in [1] and 16 nM in data set [2].

Turning to `Nc1nccc2c(-c3ccc(NC(=O)Nc4cccc(C(F)(F)F)c4)cc3)cccc12`, the half-inhibitory concentration (IC50) in data set [1] was 25 nM; in [2], 20 nM.

Turning to `Nc1ccc(-c2cnc3[nH]cc(-c4cccc(NC(=O)Nc5cc(C(F)(F)F)ccc5F)c4)c3c2)cc1`, the IC50 in data set [1] came to 50 nM; in data set [2] it was 32 nM.

Regarding `Nc1nccc2c(-c3ccc(NC(=O)Nc4cccc(C(F)(F)F)c4F)cc3)cccc12`, the concentration for half-maximal inhibition (IC50) in data set [1] is 4000 nM; in data set [2] it was more than 10000 nM.

On to `O=C(Nc1cccc(-c2c[nH]c3ncc(-c4ccccc4)cc23)c1)Nc1cccc(C(F)(F)F)c1`, for which the IC50 in data set [1] and in data set [2] was 32 nM each time.

Turning to `Nc1ncnc2occ(-c3ccc(NC(=O)Nc4cc(C(F)(F)F)cc(C(F)(F)F)c4)cc3)c12` [GW795486X], the half-inhibitory concentration (IC50) in [1] turned out to be 32 nM; in data set [2] it was 320 nM.

Consider `O=C(Nc1ccccc1)Nc1cccc(-c2c[nH]c3ncc(-c4ccccc4)cc23)c1`, for which the IC50 in data set [1] stood at 400 nM; in data set [2], 1300 nM.

Turning to `Nc1ncnc2occ(-c3ccc(NC(=O)Nc4ccc(F)c(C(F)(F)F)c4)cc3)c12`, the figures for the IC50 in data set [1] and in data set [2] were 500 nM and 160 nM, respectively.

For `Nc1nccc2c(-c3ccc(NC(=O)Nc4cc(C(F)(F)F)ccc4F)cc3)cccc12`, the IC50 was 130 nM in [1] and 13 nM in data set [2].

Turning to `CC(=O)c1cccc(NC(=O)Nc2cccc(-c3c[nH]c4ncc(-c5ccccc5)cc34)c2)c1`, the values for the 50% inhibitory concentration (IC50) in data set [1] and in data set [2] were 10 nM and 13 nM, respectively.

As to `CC(C)(C)c1cc(NC(=O)Nc2ccc(-c3coc4ncnc(N)c34)cc2)no1`, the figures for the IC50 in data set [1] and in [2] were 16 nM and 32 nM, respectively.

As for `CCS(=O)(=O)c1ccc(-c2cnc3[nH]cc(-c4cccc(NC(=O)Nc5cc(C(F)(F)F)ccc5F)c4)c3c2)cc1`, the IC50 in data set [1] was determined as 10 nM; in [2], 3.2 nM.

Regarding `Nc1nccc2c(-c3ccc(NC(=O)Nc4ccc(F)c(C(F)(F)F)c4)cc3)cccc12`, the IC50 was 10 nM in data set [1] and 320 nM in data set [2].

On to `Nc1ncnc2occ(-c3ccc(NC(=O)Nc4cc(F)cc(C(F)(F)F)c4)cc3)c12`, for which the IC50 was determined as 63 nM in [1] and 130 nM in [2].

Turning to `O=C(Nc1cccc(-c2c[nH]c3ncc(-c4ccccc4)cc23)c1)NC1CCCC1`, the half-inhibitory concentration (IC50) was 500 nM in [1] and 2000 nM in data set [2].
